Data from US7138361B2, “Herbicidal heterocycles” (E. I. du Pont de Nemours and Company, priority 2000, dated 2006).

Assays:
Experiment in all cases: Test C preemergence
Type in all cases: in vivo
[1] = tested on: Nightshade; settings: Rate 500 g/ha, visual evaluation after 12 to 14 days
[2] = tested on: velvetleaf (Abutilon theophrasti)
In short: (§1)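 Preemergence: seeds sown then treated. Postemergence: plants 2–18 cm, 1- to 4-leaf. Both with surfactant-containing solvent formulation; visual injury scored 0–100 after 12–14 d.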

[3] = tested on: soybean (Glycine max)
In short: as §1

[4] = tested on: giant foxtail (Setaria faberii)
In short: as §1

[5] = tested on: pigweed (Amaranthus retroflexus)
In short: as §1

[6] = tested on: woolly cupgrass (Eriochloa villosa)
In short: as §1

[7] = tested on: cocklebur (Xanthium strumarium)
In short: as §1

[8] = tested on: lambsquarters (Chenopodium album)
In short: as §1

[9] = tested on: Sunflower; settings: Rate 125 g/ha; scale 0 to 100, 0 no effect, 100 complete control
[10] = tested on: bermudagrass (Cynodon dactylon)
In short: as §1

[11] = tested on: goosegrass (Eleusine indica)
In short: as §1

[12] = tested on: common ragweed (Ambrosia elatior)
In short: as §1

[13] = tested on: morningglory (Ipomoea hederacea)
In short: as §1

[14] = tested on: crabgrass (Digitaria sanguinalis)
In short: as §1

[15] = tested on: johnsongrass (Sorghum halepense)
In short: as §1

[16] = tested on: yellow nutsedge (Cyperus esculentus)
In short: as §1

[17] = tested on: kochia (Kochia scoparia)
In short: as §1

[18] = tested on: Nightshade
[19] = tested on: Surinam grass (Brachiaria decumbens)
In short: as §1

[20] = tested on: corn (Zea mays)
In short: as §1

[21] = Rate 125 g/ha, scale 0 to 100, 0 no effect, 100 complete control
[22] = preemergence, Rate 62 g/ha, scale 0 to 100
[23] = preemergence, Rate 500 g/ha, visual evaluation after 12 to 14 days
[24] = preemergence, Rate 250 g/ha, scale 0 to 100, 0 no effect, 100 complete control

CCCC(C)c1ccn(C2CCN(c3ccc(Cl)c(OC)c3)C2=O)n1 (stereo not shown) [Compound 121]
Plant response rating (0 to 100), Nightshade [1]: 100 | Plant response rating, Velvetleaf [2, 21]: 20 | Plant response rating, Velvetleaf [2, 22]: 0 | Plant response rating (0 to 100), Velvetleaf [2, 23]: 100 | Plant response rating, Velvetleaf [2, 24]: 100 | Plant response rating, Soybean [3, 21]: 60 | Plant response rating, Soybean [3, 22]: 0 | Plant response rating (0 to 100), Soybean [3, 23]: 100 | Plant response rating, Soybean [3, 24]: 90 | Plant response rating, Foxtail, Giant [4, 21]: 100 | Plant response rating, Foxtail, Giant [4, 22]: 20 | Plant response rating (0 to 100), Foxtail, Giant [4, 23]: 100 | Plant response rating, Foxtail, Giant [4, 24]: 60 | Plant response rating, Pigweed [5, 21]: 50 | Plant response rating, Pigweed [5, 22]: 20 | Plant response rating (0 to 100), Pigweed [5, 23]: 100 | Plant response rating, Pigweed [5, 24]: 60 | Plant response rating, Cupgrass, Woolly [6, 21]: 100 | Plant response rating, Cupgrass, Woolly [6, 22]: 80 | Plant response rating (0 to 100), Cupgrass, Woolly [6, 23]: 100 | Plant response rating, Cupgrass, Woolly [6, 24]: 100 | Plant response rating, Cocklebur [7, 21]: 20 | Plant response rating, Cocklebur [7, 22]: 0 | Plant response rating (0 to 100), Cocklebur [7, 23]: 100 | Plant response rating, Cocklebur [7, 24]: 50 | Plant response rating, Lambsquarters [8, 21]: 100 | Plant response rating, Lambsquarters [8, 22]: 100 | Plant response rating (0 to 100), Lambsquarters [8, 23]: 100 | Plant response rating, Lambsquarters [8, 24]: 100 | Plant response rating, Sunflower [9]: 30 | Plant response rating, Bermudagrass [10, 21]: 100 | Plant response rating, Bermudagrass [10, 22]: 100 | Plant response rating (0 to 100 where 0 is no effect and 100 is complete control), Bermudagrass [10, 23]: 100 | Plant response rating, Bermudagrass [10, 24]: 100 | Plant response rating, Goosegrass [11, 21]: 100 | Plant response rating, Goosegrass [11, 22]: 100 | Plant response rating (0 to 100), Goosegrass [11, 23]: 100 | Plant response rating, Goosegrass [11, 24]: 100 | Plant response rating, Ragweed, Common [12, 21]: 90 | Plant response rating, Ragweed, Common [12, 22]: 0 | Plant response rating (0 to 100), Ragweed, Common [12, 23]: 100 | Plant response rating, Ragweed, Common [12, 24]: 90 | Plant response rating, Morningglory [13, 21]: 10 | Plant response rating, Morningglory [13, 22]: 0 | Plant response rating (0 to 100), Morningglory [13, 23]: 70 | Plant response rating, Morningglory [13, 24]: 50 | Plant response rating, Crabgrass [14, 21]: 100 | Plant response rating, Crabgrass [14, 22]: 100 | Plant response rating (0 to 100), Crabgrass [14, 23]: 100 | Plant response rating, Crabgrass [14, 24]: 100 | Plant response rating, Johnsongrass [15, 21]: 90 | Plant response rating, Johnsongrass [15, 22]: 60 | Plant response rating (0 to 100), Johnsongrass [15, 23]: 100 | Plant response rating, Johnsongrass [15, 24]: 100 | Plant response rating, Nutsedge [16, 21]: 0 | Plant response rating, Nutsedge [16, 22]: 0 | Plant response rating (0 to 100), Nutsedge [16, 23]: 0 | Plant response rating, Nutsedge [16, 24]: 0 | Plant response rating, Kochia [17, 21]: 100 | Plant response rating, Kochia [17, 22]: 100 | Plant response rating (0 to 100), Kochia [17, 23]: 100 | Plant response rating, Kochia [17, 24]: 100 | Plant response rating, Nightshade ([18]; Rate 62 g/ha, scale 0 to 100): 10 | Plant response rating, Nightshade [18, 21]: 90 | Plant response rating, Nightshade ([18]; Rate 250 g/ha, scale 0 to 100, 0 no effect, 100 complete control): 100 | Plant response rating, Surinam grass [19, 21]: 80 | Plant response rating, Surinam grass [19, 22]: 20 | Plant response rating (0 to 100), Surinam grass [19, 23]: 100 | Plant response rating, Surinam grass [19, 24]: 100 | Plant response rating, Corn [20, 21]: 20 | Plant response rating, Corn [20, 22]: 0 | Plant response rating (0 to 100), Corn [20, 23]: 90 | Plant response rating, Corn [20, 24]: 70
